The text below walks through data of US7491534B2, “Methods for altering cell fate to generate T-cells specific for an antigen of interest” (priority 2000, dated 2009).

Numbered stars: 1 amine (or outer) side, 2 acyl side, 3 side chain; on linkers, the order of the positions; unused ones are H or OH. Bridge positions count the residues as written; N and C are the ends. Square brackets hold non-standard residues; d marks the D form. Peptide text beside a SMILES is read from it. I, II: the chains in the order shown. Actinocin(9to1) = Cc1c2oc3c(C)ccc(C(=O)[*:1])c3nc-2c(C(=O)[*:2])c(N)c1=O; NMeV = CN[C@H](C(=O)O)C(C)C; Sar = CNCC(=O)O

Experiment [1] concerns IL-2 gene. The experiment is described as follows: RT-PCR of IL-2 mRNA in HUVEC, NT2 and HeLa nuclei incubated in extract. Conditions: 50 nM actinomycin D; mAb414. The format is biochemical, human. How it is done:
As a more stringent indicator of nuclear reprogramming, activation of the IL-2 gene was monitored in nuclei purified from primary human umbilical vein endothelial cells (HUVEC), NT2 neuronal precursors, and HeLa cells after a two hour incubation in the stimulated extract. […] IL-2 activation was dependent on RNA Pol II activity and nuclear import, based on its elimination by 50 nM actinomycin D and mAb414, respectively (FIG. 10C).

Experiment [2] concerns IL-2 gene. Kind of experiment: RT-PCR of IL-2 transcription in 293T fibroblast nuclei. The format is biochemical, human. The settings on record: 293T nuclei; mAb414 or 50 nM actinomycin D. Here is the method: Another and more stringent indicator of nuclear reprogramming was induction of IL-2 transcription in 293T fibroblast nuclei exposed to stimulated T-cell extract (FIG. 12D). Total RNA was isolated using the Qiagen RNeasy kit, and 15 ng RNA was used as the template for RT-PCR using the Promega Access RT-PCR System. A 467-bp product was amplified using the IL-2-specific primers 5′-[…]-3′ (SEQ ID NO: 5) and 5′-[…]-3′ (SEQ ID NO: 6) by 30 cycles of denaturation at 94° C. for 30 seconds, annealing at 60° C. for one minute, and extension at 72° C. for one minute. […] As expected from the above results, the IL-2 transcript was absent from input nuclei, input stimulated T-cell extract, and nuclei exposed to stimulated T-cell extract containing either 100 pg/ml RNAse A, mAb414, or 50 nM of the RNA polymerase II (Pol II) inhibitor, actinomycin D (FIG. 12D). Similar results were obtained with neuronal precursor NT2 nuclei and resting T-cell nuclei (FIG. 12D).

For experiment [3], the system named is NFAT, c-Jun/AP 1, NFκB, and MAP kinase (Erk1 and Erk2). The experiment is described as follows: Nuclear uptake of transcription factors by resting T-cell nuclei in cell-free extract (immunoblot). The format is biochemical, human. Conditions: in stimulated extract; ATP or GTP substituted, or nuclear pores blocked. How it is done:
A stimulated T-cell extract was prepared by lysing these T-cells, centrifuging them at 15,000×g, isolating the supernatant, and adding an ATP-generating system to the supernatant. In particular, cells were disrupted with a tip sonicator until over 90% of the cells and nuclei were lysed. The lysate was cleared at 15,000×g for 15 minutes at 4° C. The supernatant was used fresh or aliquoted, frozen in liquid nitrogen, and stored at −80° C. […] Extract from unstimulated T-cells (USE) were prepared from mock (H2O)-stimulated T-cells. A reprogramming reaction consisted of 20 μl or multiples thereof of stimulated extract or unstimulated extract containing 10^5 nuclei and an ATP generating system (1 mM ATP, 10 mM creatine phosphate, 25 μg/ml creatine kinase, and 100 μM GTP).
To generate donor nuclei, resting peripheral blood T-cells were washed and resuspended in 20 volumes of ice-cold hypotonic nuclear buffer (10 mM Hepes, pH 7.5, 2 mM MgCl2, 25 mM KCl, 1 mM DTT, and protease inhibitors). Nuclei were isolated by careful Dounce-homogenization, sedimented at 400×g and washed in nuclear buffer (hypotonic nuclear buffer/250 mM sucrose). HUVEC, HeLa, and NT2 nuclei were isolated similarly. Nuclear integrity prior to, and after, incubation in the extract was monitored by phase contrast microscopy and by nuclear membrane labeling with 10 μg/ml of the lipophilic dye, DiOC6 (FIG. 8A). […]
The ability of other transcription factors from the extract to migrate into the nuclei of T-cells, B-cells, fibroblasts, and HeLa cells was also determined. […] As expected for a whole cell extract, NFAT, AP-1, or NFκB, Oct-1 and Erk (1 and 2) were detected on Western blots of input stimulated extract prior to incubation of the nuclei (FIG. 8B). […] The ubiquitous transcription factor Oct-1 was detected in similar amounts in input nuclei and nuclei exposed to stimulated extract or unstimulated extract (FIG. 8B, Oct-1).
In general terms: Immunoblotting shows a protein as a band on a membrane.

The test system of experiment [4] is 293T fibroblasts. Kind of experiment: Permeabilization of 293T fibroblasts judged by propidium iodide uptake. Format: cell-based, human. Conditions: 200 ng/ml, 50 minutes at 37° C. How it is done:
For these studies, 293T fibroblasts were grown on 16-mm poly-L-lysine-coated coverslips in RPMI1640 to 100,000 cells/coverslip in 12-well plates. Cells were permeabilized in 200 ng/ml streptolysin O in Ca^2+-free Hanks Balanced Salt Solution (Gibco-BRL) for 50 minutes at 37° C. in regular atmosphere. Over 80% of 293T cells were permeabilized under these conditions, as judged by propidium iodide uptake. Streptolysin O was aspirated; coverslips overlaid with 80 μl of either 293T, Jurkat-Tag, or NT2 extract; and incubated for one hour at 37° C. in CO2 atmosphere. Each extract contained the ATP generating system and 1 mM each of ATP, CTP, GTP and UTP. Extracts from Jurkat-TAg cells were prepared as described above after co-stimulation for 1-2 hours with 40 ng/ml anti-CD3 antibodies (clone SpvT3d obtained from A. M. Rasmussen, Norwegian Radium Hospital, Montebello, Norway) and 0.1 μM PMA. The neuronal precursor NT2 extract was prepared from confluent NT2 cells (Stratagene) by sonication and sedimentation as described above. To reseal plasma membranes, RPMI1640 containing 2 mM CaCl2 (added from a 1 M stock in H2O) was added to the wells, and the cells were incubated for two hours at 37° C. This procedure resealed ˜100% of the permeabilized cells. Ca^2+-containing RPMI was replaced by RPMI, and the cells were expanded for several weeks.

Experiment [5] relates to IL-2 gene. The experiment is described as follows: RT-PCR of IL-2 mRNA in resting T-cell nuclei incubated in extract. Format: biochemical, human. Conditions: mAb414 antibody or 0.5 mg/ml wheat germ agglutinin. Here is the method: As controls, nuclei were incubated in stimulated extract containing either 100 μg/ml RNAse A, 100 μg/ml DNAse I, mAb414 antibodies, or the lectin WGA. After 30 minutes at 30° C., nuclei were lysed in the extracts by sonication and 3 μl extract aliquots were removed for RT-PCR analysis using IL-2-specific primers. In particular, total RNA was isolated using the Qiagen RNeasy kit, and 15 ng RNA was used as the template for RT-PCR using the Promega Access RT-PCR System. A 467-bp IL-2 cDNA was amplified using the IL-2-specific primers 5′-[…]-3′ (SEQ ID NO: 3) and 5′-[…]-3′ (SEQ ID NO:4). PCR conditions were 30 cycles of denaturation at 94° C. for one minute, annealing at 60° C. for two minutes, and extension at 72° C. for three minutes. Input stimulated extract and a control stimulated extract containing 1.2 μg total RNA isolated from IL-2-producing T-cells were also analyzed (FIGS. 5A and 10A). […] The PCR product of the expected size (467 base pairs) was absent from input nuclei and input stimulated extract (as expected from FIG. 7), nuclei exposed to unstimulated extract (Nuclei-USE), and nuclei exposed to stimulated extract followed by treatment with 100 μg/ml RNAse A, but not 100 μg/ml DNAse I, prior to RT-PCR. Thus, detection of IL-2 mRNA was the result of IL-2 transcription and not of RNA contamination in input nuclei or in the extract. […]

In the case of `Cc1c2oc3c(C)ccc(C(=O)N[C@@H]4C(=O)N[C@H](C(C)C)C(=O)N5CCC[C@H]5C(=O)N(C)CC(=O)N(C)[C@@H](C(C)C)C(=O)O[C@@H]4C)c3nc-2c(C(=O)N[C@@H]2C(=O)N[C@H](C(C)C)C(=O)N3CCC[C@H]3C(=O)N(C)CC(=O)N(C)[C@@H](C(C)C)C(=O)O[C@@H]2C)c(N)c1=O` [actinomycin D] (I: T[dV]P[Sar][NMeV] / II: T[dV]P[Sar][NMeV]; ester I:1-I:C, II:1-II:C; linker I:N-II:N via Actinocin(9to1)), the “IL-2 activation in stimulated extract with inhibitor” value in experiment [1] was “elimination”. The “IL-2 transcript in stimulated T-cell extract with inhibitor” value in experiment [2] is given as “absent”. `Nc1ncnc2c1ncn2[C@@H]1O[C@H](COP(=O)(O)OP(=O)(O)OP(O)(O)=S)[C@@H](O)[C@H]1O` [ATPγS]: in experiment [3], the “nuclear uptake (import) of transcription factors in resting T-cell nuclei” value is reported as “inhibited”. Same read-out and setting: to `Nc1nc2c(ncn2[C@@H]2O[C@H](COP(=O)(O)OP(=O)(O)OP(O)(O)=S)[C@@H](O)[C@H]2O)c(=O)[nH]1` [GTPγS] belongs “inhibited”. Consider “streptolysin O: bacterial toxin used to reversibly permeabilize cells”, for which the 293T cells permeabilized entry in experiment [4] is “Over 80%”. Take `Nc1ncnc2c1ncn2[C@@H]1O[C@H](COP(=O)(O)OP(=O)(O)NP(=O)(O)O)[C@@H](O)[C@H]1O` [AMP-PNP]: the “nuclear uptake (import) of transcription factors in resting T-cell nuclei” value in experiment [3] is “inhibited”.

Regarding wheat germ agglutinin, the “IL-2 transcription in stimulated extract with nuclear pore function blocked” value in experiment [5] is recorded as “abolished”.
